Results published in patent US9347057B2, “Methods for efficient, expansive user-defined DNA mutagenesis” (THE JOHNS HOPKINS UNIVERSITY, priority 2012, dated 2016).

How the values were obtained:
Type in all cases: cell-based, E. coli
Conditions in all cases: Escherichia coli
[1] = system: wildtype TEM-1 (allele: none); experiment: MIC assay on agar plates, cells with TEM-1 (no mutation)
Protocol: (§1) Selected single base mutations were re-introduced into TEM-1 by site-directed PFunkel mutagenesis on the 20 μL volume scale. The MIC for ampicillin and piperacillin of the mutants was assessed with and without 6 μg/mL tazobactam by spotting 10^4 CFU on Mueller-Hinton agar plates containing 50 μg/mL Spec, 300 μM IPTG, and √2-fold increments of either ampicillin or piperacillin. Plates were incubated at 37° C. for 12 hrs.

[2] = system: TEM-1 Y105N allele; experiment: MIC assay on agar plates, TEM-1 allele Y105N
Protocol: as §1

[3] = system: TEM-1 S235T allele; experiment: MIC assay on agar plates, TEM-1 allele S235T
Protocol: as §1

[4] = system: TEM-1 R244S allele; experiment: MIC assay on agar plates, TEM-1 allele R244S
Protocol: as §1

[5] = system: TEM-1 N276D allele; experiment: MIC assay on agar plates, TEM-1 allele N276D
Protocol: as §1

[6] = system: TEM-1 Y105D allele; experiment: MIC assay on agar plates, TEM-1 allele Y105D
Protocol: as §1

[7] = system: TEM-1 Y105S allele; experiment: MIC assay on agar plates, TEM-1 allele Y105S
Protocol: as §1

[8] = system: TEM-1 M69L allele; experiment: MIC assay on agar plates, TEM-1 allele M69L
Protocol: as §1

[9] = + tazobactam 6 μg/mL, median of three replicates
[10] = + tazobactam 6 μg/mL, replicate 1
[11] = + tazobactam 6 μg/mL, replicate 2
[12] = + tazobactam 6 μg/mL, replicate 3
[13] = − tazobactam, median of three replicates

Compound `CC1(C)S[C@@H]2[C@H](NC(=O)[C@H](N)c3ccccc3)C(=O)N2[C@H]1C(=O)O` [ampicillin] has an MIC [1, 9] of 22.6 µg/mL, an MIC [1, 10] of 16 µg/mL and an MIC [1, 11] of 22.6 µg/mL. The MIC [1, 12] was 22.6 µg/mL, the MIC [1, 13] was 8190 µg/mL and the MIC ([1]; − tazobactam, replicate 1) was 8190 µg/mL. It also gave an MIC ([1]; − tazobactam, replicate 2) of 8190 µg/mL, an MIC ([1]; − tazobactam, replicate 3) of 8190 µg/mL and an MIC [2, 9] of 1450 µg/mL. The MIC [2, 10] was 148 µg/mL, the MIC [2, 11] was 1450 µg/mL and the MIC [2, 12] was 1450 µg/mL. It also gave an MIC [2, 13] of 5790 µg/mL, an MIC ([2]; − tazobactam, replicate 1) of 4100 µg/mL and an MIC ([2]; − tazobactam, replicate 2) of 5790 µg/mL. The MIC ([2]; − tazobactam, replicate 3) was 5790 µg/mL, the MIC [3, 9] was 362 µg/mL and the MIC [3, 10] was 256 µg/mL. The MIC [3, 11] was 362 µg/mL, the MIC [3, 12] was 512 µg/mL and the MIC [3, 13] was 8190 µg/mL. For the same compound, the MIC ([3]; − tazobactam, replicate 1) was 8190 µg/mL, the MIC ([3]; − tazobactam, replicate 2) was 8190 µg/mL and the MIC ([3]; − tazobactam, replicate 3) was 8190 µg/mL. The MIC [4, 9] was 90.5 µg/mL, the MIC [4, 10] was 64 µg/mL and the MIC [4, 11] was 128 µg/mL. The MIC [4, 12] was 90.5 µg/mL, the MIC [4, 13] was 4100 µg/mL and the MIC ([4]; − tazobactam, replicate 1) was 2900 µg/mL. The MIC ([4]; − tazobactam, replicate 2) was 4100 µg/mL, the MIC ([4]; − tazobactam, replicate 3) was 4100 µg/mL and the MIC [5, 9] was 90.5 µg/mL. For the same compound, the MIC [5, 10] was 90.5 µg/mL, the MIC [5, 11] was 90.5 µg/mL and the MIC [5, 12] was 128 µg/mL. The MIC [5, 13] was 8190 µg/mL, the MIC ([5]; − tazobactam, replicate 1) was 8190 µg/mL and the MIC ([5]; − tazobactam, replicate 2) was 8190 µg/mL. For the same compound, the MIC ([5]; − tazobactam, replicate 3) was 8190 µg/mL, the MIC [6, 9] was 256 µg/mL and the MIC [6, 10] was 256 µg/mL. The MIC [6, 11] was 256 µg/mL, the MIC [6, 12] was 362 µg/mL and the MIC [6, 13] was 1450 µg/mL. The MIC ([6]; − tazobactam, replicate 1) was 1450 µg/mL, the MIC ([6]; − tazobactam, replicate 2) was 1450 µg/mL and the MIC ([6]; − tazobactam, replicate 3) was 1450 µg/mL. It also gave an MIC [7, 9] of 1020 µg/mL, an MIC [7, 10] of 724 µg/mL and an MIC [7, 11] of 1020 µg/mL. It also gave an MIC [7, 12] of 1020 µg/mL, an MIC [7, 13] of 2900 µg/mL and an MIC ([7]; − tazobactam, replicate 1) of 2900 µg/mL. It also gave an MIC ([7]; − tazobactam, replicate 2) of 2900 µg/mL, an MIC ([7]; − tazobactam, replicate 3) of 2900 µg/mL and an MIC [8, 9] of 724 µg/mL. For the same compound, the MIC [8, 10] was 512 µg/mL, the MIC [8, 11] was 724 µg/mL and the MIC [8, 12] was 724 µg/mL. It also gave an MIC [8, 13] of 8190 µg/mL, an MIC ([8]; − tazobactam, replicate 1) of 5790 µg/mL and an MIC ([8]; − tazobactam, replicate 2) of 8190 µg/mL. It also gave an MIC ([8]; − tazobactam, replicate 3) of 8190 µg/mL.

Compound `CCN1CCN(C(=O)N[C@@H](C(=O)N[C@@H]2C(=O)N3[C@@H]2SC(C)(C)[C@@H]3C(=O)O)c2ccccc2)C(=O)C1=O` [piperacillin] has an MIC [1, 9] of 1.4 µg/mL, an MIC [1, 10] of 1 µg/mL and an MIC [1, 11] of 1.4 µg/mL. For the same compound, the MIC [1, 12] was 1.4 µg/mL, the MIC [1, 13] was 2900 µg/mL and the MIC ([1]; − tazobactam, replicate 1) was 2900 µg/mL. It also gave an MIC ([1]; − tazobactam, replicate 2) of 2900 µg/mL, an MIC ([1]; − tazobactam, replicate 3) of 2900 µg/mL and an MIC [2, 9] of 45 µg/mL. The MIC [2, 10] was 32 µg/mL, the MIC [2, 11] was 45 µg/mL and the MIC [2, 12] was 45 µg/mL. The MIC [2, 13] was 2050 µg/mL, the MIC ([2]; − tazobactam, replicate 1) was 2050 µg/mL and the MIC ([2]; − tazobactam, replicate 2) was 2050 µg/mL. For the same compound, the MIC ([2]; − tazobactam, replicate 3) was 2050 µg/mL, the MIC [3, 9] was 22.6 µg/mL and the MIC [3, 10] was 32 µg/mL. The MIC [3, 11] was 16 µg/mL, the MIC [3, 12] was 22.6 µg/mL and the MIC [3, 13] was 2900 µg/mL. The MIC ([3]; − tazobactam, replicate 1) was 2900 µg/mL, the MIC ([3]; − tazobactam, replicate 2) was 2900 µg/mL and the MIC ([3]; − tazobactam, replicate 3) was 2900 µg/mL. The MIC [4, 9] was 2 µg/mL, the MIC [4, 10] was 2 µg/mL and the MIC [4, 11] was 2.83 µg/mL. It also gave an MIC [4, 12] of 2 µg/mL, an MIC [4, 13] of 1450 µg/mL and an MIC ([4]; − tazobactam, replicate 1) of 1020 µg/mL. It also gave an MIC ([4]; − tazobactam, replicate 2) of 1450 µg/mL, an MIC ([4]; − tazobactam, replicate 3) of 1450 µg/mL and an MIC [5, 9] of 1.4 µg/mL. For the same compound, the MIC [5, 10] was 1 µg/mL, the MIC [5, 11] was 1.4 µg/mL and the MIC [5, 12] was 2 µg/mL. It also gave an MIC [5, 13] of 2900 µg/mL, an MIC ([5]; − tazobactam, replicate 1) of 2900 µg/mL and an MIC ([5]; − tazobactam, replicate 2) of 2900 µg/mL. For the same compound, the MIC ([5]; − tazobactam, replicate 3) was 2900 µg/mL, the MIC [6, 9] was 1 µg/mL and the MIC [6, 10] was 1 µg/mL. The MIC [6, 11] was 1 µg/mL, the MIC [6, 12] was 1 µg/mL and the MIC [6, 13] was 1.4 µg/mL. The MIC ([6]; − tazobactam, replicate 1) was 1.4 µg/mL, the MIC ([6]; − tazobactam, replicate 2) was 1.4 µg/mL and the MIC ([6]; − tazobactam, replicate 3) was 1.4 µg/mL. It also gave an MIC [7, 9] of 16 µg/mL, an MIC [7, 10] of 16 µg/mL and an MIC [7, 11] of 16 µg/mL. For the same compound, the MIC [7, 12] was 16 µg/mL, the MIC [7, 13] was 1450 µg/mL and the MIC ([7]; − tazobactam, replicate 1) was 1020 µg/mL. For the same compound, the MIC ([7]; − tazobactam, replicate 2) was 1450 µg/mL, the MIC ([7]; − tazobactam, replicate 3) was 1450 µg/mL and the MIC [8, 9] was 22.6 µg/mL. The MIC [8, 10] was 22.6 µg/mL, the MIC [8, 11] was 32 µg/mL and the MIC [8, 12] was 22.6 µg/mL. For the same compound, the MIC [8, 13] was 2900 µg/mL, the MIC ([8]; − tazobactam, replicate 1) was 2050 µg/mL and the MIC ([8]; − tazobactam, replicate 2) was 2900 µg/mL. The MIC ([8]; − tazobactam, replicate 3) was 2900 µg/mL.
